Test [1] has as its target T1, Gastric inhibitory polypeptide receptor (Homo sapiens, UniProt P48546).
T1 sequence (P48546 whole entry): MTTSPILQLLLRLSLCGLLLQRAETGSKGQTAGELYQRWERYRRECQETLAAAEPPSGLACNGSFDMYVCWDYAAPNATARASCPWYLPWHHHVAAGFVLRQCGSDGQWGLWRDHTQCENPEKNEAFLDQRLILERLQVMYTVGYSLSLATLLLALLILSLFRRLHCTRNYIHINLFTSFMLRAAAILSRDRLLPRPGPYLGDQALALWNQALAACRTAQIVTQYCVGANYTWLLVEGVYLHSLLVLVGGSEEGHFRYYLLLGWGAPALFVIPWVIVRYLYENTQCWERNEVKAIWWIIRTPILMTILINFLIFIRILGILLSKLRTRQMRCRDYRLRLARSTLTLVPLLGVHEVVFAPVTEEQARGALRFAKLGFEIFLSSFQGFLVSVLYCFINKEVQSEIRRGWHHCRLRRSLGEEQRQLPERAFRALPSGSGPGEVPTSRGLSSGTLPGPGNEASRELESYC
Briefly: Agonist activity at human GIPR expressed in CHO cells assessed as increase in cAMP production incubated for 30 mins by Eu-cAMP tracer based microplate reader analysis. The class given is functional, cell-based. Background: Changes in cAMP serve as a functional read-out for many G protein-coupled receptors.

In test [2] the target is Glucagon-like peptide 1 receptor (Homo sapiens, UniProt P43220). The experiment in a line: Agonist activity at human GLP-1R expressed in CHO cells assessed as increase in cAMP production incubated for 30 mins by Eu-cAMP tracer based microplate reader analysis. The class given is functional, cell-based.

This note sets out measurements from ChEMBL document CHEMBL5576038, “Design of a novel long-acting dual GLP-1/GIP receptor agonist” (Bioorg Med Chem, 2024).

The term EC50 denotes the concentration needed to bring the measured effect to its halfway point.

SMILES strings stand for the structures. Where a SMILES comes first, the peptide text is derived from it. [ ]: non-standard residue; d: D form. The star is where a group is joined. X1 = N[C@@H](CCCCNC(=O)CC[C@H](NC(=O)CCCCCCCCCCCCCCCCCCC(=O)O)C(=O)O)C(=O)NCCCC[C@H](N)C(=O)N[C@@H](CCCCNC(=O)C*)C(=O)O; X6 = N[C@@H](CCCCNC(=O)CC[C@H](NC(=O)CCCCCCCCCCCCCCCCC(=O)O)C(=O)O)C(=O)NCCCC[C@H](N)C(=O)N[C@@H](CCCCNC(=O)C*)C(=O)O; X5 = O=C(O)CCCCCCCCCCCCCCCCCCC(=O)N[C@@H](CCC(=O)NCCOCCOCC(=O)NCCOCCOCC(=O)N[C@@H](CCCCNC(=O)C*)C(=O)O)C(=O)O; Aib = CC(C)(N)C(=O)O

Sequence of Glucagon-like peptide 1 receptor (P43220 whole entry): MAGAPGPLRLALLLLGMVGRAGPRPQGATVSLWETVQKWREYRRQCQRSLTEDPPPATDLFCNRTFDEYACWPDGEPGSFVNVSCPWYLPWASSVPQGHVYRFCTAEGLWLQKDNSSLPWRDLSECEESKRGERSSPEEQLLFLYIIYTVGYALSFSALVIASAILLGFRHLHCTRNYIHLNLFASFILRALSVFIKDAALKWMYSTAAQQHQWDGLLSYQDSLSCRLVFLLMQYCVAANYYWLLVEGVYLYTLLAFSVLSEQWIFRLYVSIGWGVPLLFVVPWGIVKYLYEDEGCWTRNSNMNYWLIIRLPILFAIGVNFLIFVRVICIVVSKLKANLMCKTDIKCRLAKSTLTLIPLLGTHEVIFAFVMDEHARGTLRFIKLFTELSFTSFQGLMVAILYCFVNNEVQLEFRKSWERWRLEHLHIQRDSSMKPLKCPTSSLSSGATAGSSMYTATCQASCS

For the molecule `CC(C)C[C@H](NC(=O)[C@H](CC(C)C)NC(=O)[C@H](Cc1c[nH]c2ccccc12)NC(=O)[C@H](CCC(N)=O)NC(=O)[C@@H](NC(=O)[C@H](Cc1ccccc1)NC(=O)[C@H](CC(C)C)NC(=O)[C@H](CCCCN)NC(=O)[C@H](C)NC(=O)[C@H](C)NC(=O)[C@H](CCC(N)=O)NC(=O)[C@H](CCCCN)NC(=O)[C@H](CCC(=O)O)NC(=O)[C@H](CC(C)C)NC(=O)[C@H](CS)NC(=O)[C@H](Cc1ccc(O)cc1)NC(=O)[C@H](CO)NC(=O)[C@H](Cc1ccc(O)cc1)NC(=O)[C@H](CC(=O)O)NC(=O)[C@H](CO)NC(=O)[C@@H](NC(=O)[C@H](Cc1ccccc1)NC(=O)[C@@H](NC(=O)CNC(=O)[C@H](CCC(=O)O)NC(=O)C(C)(C)NC(=O)[C@@H](N)Cc1ccc(O)cc1)[C@@H](C)O)[C@@H](C)O)C(C)C)C(=O)N[C@@H](C)C(=O)NCC(=O)NCC(=O)N1CCC[C@H]1C(=O)N[C@@H](CO)C(=O)N[C@@H](CO)C(=O)NCC(=O)N[C@@H](C)C(=O)N1CCC[C@H]1C(=O)N1CCC[C@H]1C(=O)N1CCC[C@H]1C(=O)N[C@@H](CO)C(N)=O` (H-Y[Aib]EGTFTSDYSYCLEKQAAKLFVQWLLAGGPSSGAPPPS-NH2), the EC50 came to 0.39 nM in test [1] and 0.42 nM in test [2].

Consider `CC(C)C[C@H](NC(=O)[C@H](CC(C)C)NC(=O)[C@H](Cc1c[nH]c2ccccc12)NC(=O)[C@H](CCC(N)=O)NC(=O)[C@@H](NC(=O)[C@H](Cc1ccccc1)NC(=O)[C@H](CC(C)C)NC(=O)[C@H](CSCC(=O)NCCCC[C@H](NC(=O)[C@@H](N)CCCCNC(=O)[C@@H](N)CCCCNC(=O)CC[C@H](NC(=O)CCCCCCCCCCCCCCCCC(=O)O)C(=O)O)C(=O)O)NC(=O)[C@H](C)NC(=O)[C@H](C)NC(=O)[C@H](CCC(N)=O)NC(=O)[C@H](CCCCN)NC(=O)[C@H](CCC(=O)O)NC(=O)[C@H](CC(C)C)NC(=O)[C@H](Cc1ccc(O)cc1)NC(=O)[C@H](Cc1ccc(O)cc1)NC(=O)[C@H](CO)NC(=O)[C@H](Cc1ccc(O)cc1)NC(=O)[C@H](CC(=O)O)NC(=O)[C@H](CO)NC(=O)[C@@H](NC(=O)[C@H](Cc1ccccc1)NC(=O)[C@@H](NC(=O)CNC(=O)[C@H](CCC(=O)O)NC(=O)C(C)(C)NC(=O)[C@@H](N)Cc1ccc(O)cc1)[C@@H](C)O)[C@@H](C)O)C(C)C)C(=O)N[C@@H](C)C(=O)NCC(=O)NCC(=O)N1CCC[C@H]1C(=O)N[C@@H](CO)C(=O)N[C@@H](CO)C(=O)NCC(=O)N[C@@H](C)C(=O)N1CCC[C@H]1C(=O)N1CCC[C@H]1C(=O)N1CCC[C@H]1C(=O)N[C@@H](CO)C(N)=O` (H-Y[Aib]EGTFTSDYSYYLEKQAAC(X6)LFVQWLLAGGPSSGAPPPS-NH2), for which the EC50 in test [1] amounted to 19.2 nM; in test [2], 1.26 nM.

Turning to `CC(C)C[C@H](NC(=O)[C@H](CC(C)C)NC(=O)[C@H](Cc1c[nH]c2ccccc12)NC(=O)[C@H](CSCC(=O)NCCCC[C@H](NC(=O)COCCOCCNC(=O)COCCOCCNC(=O)CC[C@H](NC(=O)CCCCCCCCCCCCCCCCCCC(=O)O)C(=O)O)C(=O)O)NC(=O)[C@@H](NC(=O)[C@H](Cc1ccccc1)NC(=O)[C@H](CC(C)C)NC(=O)[C@H](CCCCN)NC(=O)[C@H](C)NC(=O)[C@H](C)NC(=O)[C@H](CCC(N)=O)NC(=O)[C@H](CCCCN)NC(=O)[C@H](CCC(=O)O)NC(=O)[C@H](CC(C)C)NC(=O)[C@H](Cc1ccc(O)cc1)NC(=O)[C@H](Cc1ccc(O)cc1)NC(=O)[C@H](CO)NC(=O)[C@H](Cc1ccc(O)cc1)NC(=O)[C@H](CC(=O)O)NC(=O)[C@H](CO)NC(=O)[C@@H](NC(=O)[C@H](Cc1ccccc1)NC(=O)[C@@H](NC(=O)CNC(=O)[C@H](CCC(=O)O)NC(=O)C(C)(C)NC(=O)[C@@H](N)Cc1ccc(O)cc1)[C@@H](C)O)[C@@H](C)O)C(C)C)C(=O)N[C@@H](C)C(=O)NCC(=O)NCC(=O)N1CCC[C@H]1C(=O)N[C@@H](CO)C(=O)N[C@@H](CO)C(=O)NCC(=O)N[C@@H](C)C(=O)N1CCC[C@H]1C(=O)N1CCC[C@H]1C(=O)N1CCC[C@H]1C(=O)N[C@@H](CO)C(N)=O` (H-Y[Aib]EGTFTSDYSYYLEKQAAKLFVC(X5)WLLAGGPSSGAPPPS-NH2), the half-maximal effective concentration (EC50) is 3.73 nM in test [1] and 0.89 nM in test [2].

For `CC(C)C[C@H](NC(=O)[C@H](CC(C)C)NC(=O)[C@H](Cc1c[nH]c2ccccc12)NC(=O)[C@H](CCC(N)=O)NC(=O)[C@@H](NC(=O)[C@H](Cc1ccccc1)NC(=O)[C@H](CC(C)C)NC(=O)[C@H](CCCCN)NC(=O)[C@H](C)NC(=O)[C@H](C)NC(=O)[C@H](CCC(N)=O)NC(=O)[C@H](CCCCN)NC(=O)[C@H](CCC(=O)O)NC(=O)[C@H](CC(C)C)NC(=O)[C@H](CSCC(=O)NCCCC[C@H](NC(=O)[C@@H](N)CCCCNC(=O)[C@@H](N)CCCCNC(=O)CC[C@H](NC(=O)CCCCCCCCCCCCCCCCCCC(=O)O)C(=O)O)C(=O)O)NC(=O)[C@H](Cc1ccc(O)cc1)NC(=O)[C@H](CO)NC(=O)[C@H](Cc1ccc(O)cc1)NC(=O)[C@H](CC(=O)O)NC(=O)[C@H](CO)NC(=O)[C@@H](NC(=O)[C@H](Cc1ccccc1)NC(=O)[C@@H](NC(=O)CNC(=O)[C@H](CCC(=O)O)NC(=O)C(C)(C)NC(=O)[C@@H](N)Cc1ccc(O)cc1)[C@@H](C)O)[C@@H](C)O)C(C)C)C(=O)N[C@@H](C)C(=O)NCC(=O)NCC(=O)N1CCC[C@H]1C(=O)N[C@@H](CO)C(=O)N[C@@H](CO)C(=O)NCC(=O)N[C@@H](C)C(=O)N1CCC[C@H]1C(=O)N1CCC[C@H]1C(=O)N1CCC[C@H]1C(=O)N[C@@H](CO)C(N)=O` (H-Y[Aib]EGTFTSDYSYC(X1)LEKQAAKLFVQWLLAGGPSSGAPPPS-NH2), the EC50 in test [1] was found to be 0.14 nM; in test [2] it was 0.46 nM.

For the molecule `CC(C)C[C@H](NC(=O)[C@H](CC(C)C)NC(=O)[C@H](Cc1c[nH]c2ccccc12)NC(=O)[C@H](CCC(N)=O)NC(=O)[C@@H](NC(=O)[C@H](Cc1ccccc1)NC(=O)[C@H](CC(C)C)NC(=O)[C@H](CS)NC(=O)[C@H](C)NC(=O)[C@H](C)NC(=O)[C@H](CCC(N)=O)NC(=O)[C@H](CCCCN)NC(=O)[C@H](CCC(=O)O)NC(=O)[C@H](CC(C)C)NC(=O)[C@H](Cc1ccc(O)cc1)NC(=O)[C@H](Cc1ccc(O)cc1)NC(=O)[C@H](CO)NC(=O)[C@H](Cc1ccc(O)cc1)NC(=O)[C@H](CC(=O)O)NC(=O)[C@H](CO)NC(=O)[C@@H](NC(=O)[C@H](Cc1ccccc1)NC(=O)[C@@H](NC(=O)CNC(=O)[C@H](CCC(=O)O)NC(=O)C(C)(C)NC(=O)[C@@H](N)Cc1ccc(O)cc1)[C@@H](C)O)[C@@H](C)O)C(C)C)C(=O)N[C@@H](C)C(=O)NCC(=O)NCC(=O)N1CCC[C@H]1C(=O)N[C@@H](CO)C(=O)N[C@@H](CO)C(=O)NCC(=O)N[C@@H](C)C(=O)N1CCC[C@H]1C(=O)N1CCC[C@H]1C(=O)N1CCC[C@H]1C(=O)N[C@@H](CO)C(N)=O` (H-Y[Aib]EGTFTSDYSYYLEKQAACLFVQWLLAGGPSSGAPPPS-NH2), the EC50 in test [1] was determined as 0.6 nM; in test [2], 0.29 nM.

Regarding `CC(C)C[C@H](NC(=O)[C@H](CC(C)C)NC(=O)[C@H](Cc1c[nH]c2ccccc12)NC(=O)[C@H](CSCC(=O)NCCCC[C@H](NC(=O)[C@@H](N)CCCCNC(=O)[C@@H](N)CCCCNC(=O)CC[C@H](NC(=O)CCCCCCCCCCCCCCCCCCC(=O)O)C(=O)O)C(=O)O)NC(=O)[C@@H](NC(=O)[C@H](Cc1ccccc1)NC(=O)[C@H](CC(C)C)NC(=O)[C@H](CCCCN)NC(=O)[C@H](C)NC(=O)[C@H](C)NC(=O)[C@H](CCC(N)=O)NC(=O)[C@H](CCCCN)NC(=O)[C@H](CCC(=O)O)NC(=O)[C@H](CC(C)C)NC(=O)[C@H](Cc1ccc(O)cc1)NC(=O)[C@H](Cc1ccc(O)cc1)NC(=O)[C@H](CO)NC(=O)[C@H](Cc1ccc(O)cc1)NC(=O)[C@H](CC(=O)O)NC(=O)[C@H](CO)NC(=O)[C@@H](NC(=O)[C@H](Cc1ccccc1)NC(=O)[C@@H](NC(=O)CNC(=O)[C@H](CCC(=O)O)NC(=O)C(C)(C)NC(=O)[C@@H](N)Cc1ccc(O)cc1)[C@@H](C)O)[C@@H](C)O)C(C)C)C(=O)N[C@@H](C)C(=O)NCC(=O)NCC(=O)N1CCC[C@H]1C(=O)N[C@@H](CO)C(=O)N[C@@H](CO)C(=O)NCC(=O)N[C@@H](C)C(=O)N1CCC[C@H]1C(=O)N1CCC[C@H]1C(=O)N1CCC[C@H]1C(=O)N[C@@H](CO)C(N)=O` (H-Y[Aib]EGTFTSDYSYYLEKQAAKLFVC(X1)WLLAGGPSSGAPPPS-NH2), the concentration for a half-maximal effect (EC50) in test [1] was found to be 7.2 nM; in test [2], 0.29 nM.

As to `CC(C)C[C@H](NC(=O)[C@H](CC(C)C)NC(=O)[C@H](Cc1c[nH]c2ccccc12)NC(=O)[C@H](CCC(N)=O)NC(=O)[C@@H](NC(=O)[C@H](Cc1ccccc1)NC(=O)[C@H](CC(C)C)NC(=O)[C@H](CSCC(=O)NCCCC[C@H](NC(=O)COCCOCCNC(=O)COCCOCCNC(=O)CC[C@H](NC(=O)CCCCCCCCCCCCCCCCCCC(=O)O)C(=O)O)C(=O)O)NC(=O)[C@H](C)NC(=O)[C@H](C)NC(=O)[C@H](CCC(N)=O)NC(=O)[C@H](CCCCN)NC(=O)[C@H](CCC(=O)O)NC(=O)[C@H](CC(C)C)NC(=O)[C@H](Cc1ccc(O)cc1)NC(=O)[C@H](Cc1ccc(O)cc1)NC(=O)[C@H](CO)NC(=O)[C@H](Cc1ccc(O)cc1)NC(=O)[C@H](CC(=O)O)NC(=O)[C@H](CO)NC(=O)[C@@H](NC(=O)[C@H](Cc1ccccc1)NC(=O)[C@@H](NC(=O)CNC(=O)[C@H](CCC(=O)O)NC(=O)C(C)(C)NC(=O)[C@@H](N)Cc1ccc(O)cc1)[C@@H](C)O)[C@@H](C)O)C(C)C)C(=O)N[C@@H](C)C(=O)NCC(=O)NCC(=O)N1CCC[C@H]1C(=O)N[C@@H](CO)C(=O)N[C@@H](CO)C(=O)NCC(=O)N[C@@H](C)C(=O)N1CCC[C@H]1C(=O)N1CCC[C@H]1C(=O)N1CCC[C@H]1C(=O)N[C@@H](CO)C(N)=O` (H-Y[Aib]EGTFTSDYSYYLEKQAAC(X5)LFVQWLLAGGPSSGAPPPS-NH2), the results for the EC50 in test [1] and in test [2] were 1.31 nM and 0.49 nM, respectively.
